# Measurements from paper PMC9841592 (ACS Medicinal Chemistry Letters, 2022).
# Entries after “also recorded” stand apart in the source; their conditions may differ. Where two headings read alike, the source gives them in different places. Marks after values point to notes of the source that are not given here.
# Legend:
# hERG [1] = target: T1, hERG (Homo sapiens, UniProt Q12809); conditions: for hERG ion channel inhibition (in words): hERG inhibition binding assay
# IGF-1 = conditions: Phase 2, acromegaly patients switched to oral paltusotine; cited from earlier work
# plasma IGF-1 [2] = assay: Plasma IGF-1 after repeated daily oral dosing in rats; type: in vivo, rat; conditions: male SD rats
# plasma IGF-1 [3] = assay: Plasma IGF-1 after repeated daily oral dosing in dogs; type: in vivo, dog; conditions: p < 0.05
# Human SST2 = Human SST2 (Homo sapiens, UniProt P30874); type: cell-based
# [4] = healthy human volunteers, Phase 1 study; cited from earlier work
# hERG [5] = target: T1, hERG; assay: Patch-clamp hERG assay; type: cell-based
# GH secretion and IGF-1 = conditions: cited from earlier work; for effect on IGF-1 levels / effect on GHRH-stimulated GH secretion: Phase 1, healthy volunteers; for effect on IGF-1 levels: over several days
# T1 sequence (Q12809 whole entry): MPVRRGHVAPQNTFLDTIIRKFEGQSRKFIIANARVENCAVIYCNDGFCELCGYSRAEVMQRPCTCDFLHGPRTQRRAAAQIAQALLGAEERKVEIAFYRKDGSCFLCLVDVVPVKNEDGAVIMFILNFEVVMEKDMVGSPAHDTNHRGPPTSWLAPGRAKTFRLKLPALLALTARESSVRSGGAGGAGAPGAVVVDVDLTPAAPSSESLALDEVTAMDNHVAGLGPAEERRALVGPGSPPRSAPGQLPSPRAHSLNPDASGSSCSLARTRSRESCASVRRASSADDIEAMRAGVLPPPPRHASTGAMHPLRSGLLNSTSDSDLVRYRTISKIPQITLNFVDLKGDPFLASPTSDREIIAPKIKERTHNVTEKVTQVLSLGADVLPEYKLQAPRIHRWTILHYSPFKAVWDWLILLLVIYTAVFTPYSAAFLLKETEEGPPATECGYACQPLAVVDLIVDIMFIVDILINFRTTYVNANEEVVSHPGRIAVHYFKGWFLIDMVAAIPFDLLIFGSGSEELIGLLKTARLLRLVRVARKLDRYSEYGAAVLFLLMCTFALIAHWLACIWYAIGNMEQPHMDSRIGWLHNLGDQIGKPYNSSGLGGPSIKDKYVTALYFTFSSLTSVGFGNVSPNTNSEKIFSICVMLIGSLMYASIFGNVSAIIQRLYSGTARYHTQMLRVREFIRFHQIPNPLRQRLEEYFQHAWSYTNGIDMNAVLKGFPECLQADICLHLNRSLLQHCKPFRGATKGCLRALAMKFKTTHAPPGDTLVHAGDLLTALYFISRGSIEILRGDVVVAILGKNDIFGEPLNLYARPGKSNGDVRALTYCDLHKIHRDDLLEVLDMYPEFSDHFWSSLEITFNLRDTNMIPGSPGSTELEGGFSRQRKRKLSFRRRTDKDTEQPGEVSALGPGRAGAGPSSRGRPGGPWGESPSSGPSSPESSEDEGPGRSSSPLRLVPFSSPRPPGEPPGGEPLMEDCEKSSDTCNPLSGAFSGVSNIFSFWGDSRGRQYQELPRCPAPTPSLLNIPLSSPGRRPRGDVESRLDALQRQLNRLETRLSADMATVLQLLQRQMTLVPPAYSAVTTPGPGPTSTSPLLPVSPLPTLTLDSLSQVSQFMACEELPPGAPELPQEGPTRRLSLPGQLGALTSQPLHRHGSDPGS
# Chain of Human SST2 (P30874 whole entry): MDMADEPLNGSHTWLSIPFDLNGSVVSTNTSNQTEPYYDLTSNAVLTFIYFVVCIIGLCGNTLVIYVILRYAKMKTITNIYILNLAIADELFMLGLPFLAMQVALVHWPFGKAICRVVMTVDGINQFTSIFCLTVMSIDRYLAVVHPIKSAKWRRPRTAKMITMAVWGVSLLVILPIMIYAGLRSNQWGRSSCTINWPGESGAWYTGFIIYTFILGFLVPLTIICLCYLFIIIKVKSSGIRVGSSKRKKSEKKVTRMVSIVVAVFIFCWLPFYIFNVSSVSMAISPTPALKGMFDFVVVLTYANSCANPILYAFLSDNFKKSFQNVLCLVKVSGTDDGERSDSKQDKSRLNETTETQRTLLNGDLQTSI
structure (smiles),measurement,setting,value
N#Cc1cc(F)cc(-c2ccc3ncc(-c4cc(F)cc(F)c4)c(N4CCC(N)CC4)c3c2)c1O [Compound 24],hERG ion channel inhibition (in words),hERG [1],weak inhibitors
N#Cc1cccc(-c2ccc3ncc(-c4cccc(F)c4)c(N4CCC(N)CC4)c3c2)c1O [Compound 25],hERG ion channel inhibition (in words),hERG [1],weak inhibitors
"N#Cc1cccc(-c2ccc3ncc(-c4cc(F)cc(F)c4)c(N4CCC(N)CC4)c3c2)c1O [Compound 22, 3-[4-(4-aminopiperidin-1-yl)-3-(3,5-difluorophenyl)quinolin-6-yl]-2-hydroxybenzonitrile]",effect on IGF-1 levels after switch from injected depots,IGF-1,maintain IGF-1 levels
same,suppression of plasma IGF-1 relative to vehicle,"plasma IGF-1 [2]; 10 mg/kg/day po for 14 days, days 2, 10 and 14, p < 0.05",significantly suppressed
same,suppression of plasma IGF-1 relative to vehicle,"plasma IGF-1 [2]; 30 mg/kg/day po for 14 days, all days measured, p < 0.05",significantly suppressed
same,"suppression of plasma IGF-1 relative to vehicle, day 1","plasma IGF-1 [3]; male and female beagle dogs, 150 mg/kg/day po",significantly suppressed
same,"suppression of plasma IGF-1 compared to vehicle, day 7","plasma IGF-1 [3]; male and female beagle dogs, 6, 30 and 150 mg/kg/day po for 7 days",significantly suppressed
same,selectivity for SST2 over other SST receptor subtypes,Human SST2,> 1000 fold
same,oral bioavailability,[4],~70%
same,IC50,hERG [5],9.9 µM
same,effect on IGF-1 levels,GH secretion and IGF-1; listed as Paltusotine,dose-dependent reduction
same,effect on IGF-1 levels,GH secretion and IGF-1; listed as paltusotine,lowered IGF-1 levels
same,effect on GHRH-stimulated GH secretion,GH secretion and IGF-1; listed as Paltusotine,dose-dependent reduction
same,effect on GHRH-stimulated GH secretion,GH secretion and IGF-1; listed as paltusotine,acutely suppressed
same,tolerability,"GH secretion and IGF-1; double-blind placebo-controlled Phase 1 trial, healthy volunteers",good tolerability
same,hERG pIC50±SEM,hERG [1]; hERG binding assay,<5 ^c
same,hERG ion channel inhibition (in words),hERG [1],weak inhibitors; also recorded: no direct inhibition
